≈ marks a conversion by molar mass, not a printed value. Read-outs that look alike come from different tables or passages of the source.
Columns and labels:
Mtb strain mc^27000 = assay: microbe, parasite or virus in culture; format: cell-based, Mycobacterium tuberculosis; conditions: for MIC: Mtb mc^27000, liquid medium, 96-well plates, read-out: MIC
[1] = target: Mtb Pks13-TE domain (wild-type) (Mycobacterium tuberculosis, UniProt I6X8D2); assay: biochemical; format: biochemical; conditions: for IC50: Pks13-TE, 20 μM 4-MUH, read-out: IC50
Mtb Pks13-TE domain (wild-type), sequence (I6X8D2 1451-1733): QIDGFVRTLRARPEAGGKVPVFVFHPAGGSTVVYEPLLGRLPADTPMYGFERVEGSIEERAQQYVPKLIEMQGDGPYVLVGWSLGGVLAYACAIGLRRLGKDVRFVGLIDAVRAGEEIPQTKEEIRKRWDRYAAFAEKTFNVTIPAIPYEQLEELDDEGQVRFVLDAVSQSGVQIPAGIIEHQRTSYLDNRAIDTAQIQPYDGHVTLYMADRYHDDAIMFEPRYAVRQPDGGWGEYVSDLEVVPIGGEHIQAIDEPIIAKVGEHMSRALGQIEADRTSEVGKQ

Structure (SMILES)	MIC (Mtb strain mc^27000; Mycobacterium tuberculosis) [µM]	IC50 [1] [µM]	other results
CNC(=O)c1c(-c2ccc(NC(C)=O)cc2)oc2ccc(O)c(CN3CCCCC3)c12 [compound 66]	> 20	–	–
CNC(=O)c1c(-c2ccnc(OC)c2)oc2cc(O)cc(CN3CCCCC3)c12 [compound 87]	3.3 (≈ 1.31 µg/mL)	–	–
CNC(=O)c1c(-c2ccccc2)oc2ccc(O)c(CCN3CCCC3)c12 [compound 101]	3.3 (≈ 1.2 µg/mL)	–	–
CCOC(=O)c1c(-c2ccccc2)oc2ccc(OC)c(Cc3ccccc3)c12 [compound 19]	50 (≈ 19.3 µg/mL)	50	–
CNC(=O)c1c(-c2cccnc2)oc2ccc(OC)c(CN3CCCCC3)c12 [compound 112]	> 40	35.8	–
CCOC(=O)c1c(-c2ccccc2)oc2ccc(O)c(CC(=O)N3CCCC3)c12 [compound 130]	–	–	MIC (Mtb strain mc^27000): 4.1 µM (≈ 1.61 µg/mL)
CCOC(=O)c1c(-c2ccccc2)oc2ccc(O)c(CCCN3CCSC3C)c12 (stereo not shown) [compound 174]	4.7 (≈ 2 µg/mL)	1.25	–
CNC(=O)c1c(-c2ccc(O)cc2)oc2ccc(O)c(CN3CCC(CO)C3)c12 (stereo not shown) [compound 122]	1 (≈ 0.396 µg/mL)	0.51	–
CCOC(=O)c1c(-c2ccccc2)oc2cc(O)cc(CCN)c12 [compound 55]	–	4	MIC (Mtb strain mc^27000): >20 µM
CCOC(=O)c1c(-c2ccc(F)cc2)oc2cc(O)cc(CN3CCCCC3)c12 [compound 49]	–	0.4	MIC (Mtb strain mc^27000): >10 µM
CCOC(=O)c1c(-c2cccc(OC)c2)oc2ccc(O)c(CN3CCCCC3)c12 [compound 48]	1.3 (≈ 0.532 µg/mL)	0.36	–
CCOC(=O)c1c(-c2ccccc2)oc2cc(Cc3ccccc3)c(O)cc12 [compound 11]	28 (≈ 10.4 µg/mL)	–	–
CNC(=O)c1c(-c2ccnc(O)c2)oc2cc(O)cc(CN3CCCCC3)c12 [compound 85]	> 10	–	–
CCOC(=O)c1c(-c2ccccc2)oc2ccc(O)c(CCN3CCC(C)CC3)c12 [compound 149]	2.3 (≈ 0.937 µg/mL)	–	–
CCOC(=O)c1c(-c2ccc(F)cc2)oc2cc(O)cc(CCNC(C)CO)c12 (stereo not shown) [compound 77]	3.3 (≈ 1.32 µg/mL)	6	–
CCOC(=O)c1c(-c2ccccc2)oc2ccc(O)c(CCCNCC(F)F)c12 [compound 218]	–	–	MIC (Mtb strain mc^27000): 2.8 µM (≈ 1.13 µg/mL)
CNC(=O)c1c(-c2ccccc2)oc2cc(O)cc(CNC3CCOCC3)c12 [compound 95]	8 (≈ 3.04 µg/mL)	–	–

Structure (SMILES)	MIC (Mtb strain mc^27000; Mycobacterium tuberculosis) [µM]	IC50 [1] [µM]	other results
CCOC(=O)c1c(-c2ccccc2)oc2ccc(O)c(CCN3CCCC(O)C3)c12 (stereo not shown) [compound 151]	–	10	MIC (Mtb strain mc^27000): >20 µM
CCOC(=O)c1c(-c2ccccc2)oc2cc(CN3CCCCC3)cc(OC)c12 [compound 35]	40 (≈ 15.7 µg/mL)	–	–
CCOC(=O)c1c(-c2ccccc2)oc2ccc(O)c(CCN[C@@H](Cc3c[nH]cn3)C(=O)O)c12 [compound 245]	> 40	2.7	–
CNC(=O)c1c(-c2ccccc2)oc2cc(OCC(N)=O)cc(CN3CCCCC3)c12 [compound 90]	–	–	inhibition at 40 µM ([1]; at 40 μM, read-out: percentage inhibition observed (IC50 column, incomplete inhibition)): 31%; inhibition at 20 µM (Mtb strain mc^27000; Mycobacterium tuberculosis, at 20 μM, read-out: percentage inhibition observed (incomplete inhibition)): 13%
CCOC(=O)c1c(-c2ccccc2)oc2cc(CN3CCCCC3)cc(O)c12 [compound 36]	40 (≈ 15.2 µg/mL)	–	–
CCOC(=O)c1c(-c2ccccc2)oc2ccc(O)c(CCCO)c12 [compound 107]	> 20	–	–
CCNC(=O)c1c(-c2ccccc2)oc2ccc(O)c(CN3CCCCC3)c12 [compound 18]	14 (≈ 5.3 µg/mL)	0.36	–
CNC(=O)c1c(-c2ccccc2)oc2ccc(O)c(CCCN3CCCC3)c12 [compound 105]	5 (≈ 1.89 µg/mL)	5	–
CNC(=O)c1c(-c2ccccc2)oc2ccc(O)c(CCN3CC[C@H](Br)C3)c12 [compound 231]	8 (≈ 3.55 µg/mL)	5	–
CNC(=O)c1c(-c2ccccc2)oc2cccc(CN3CCCCC3)c12 [compound 33]	> 50	45	–
CNC(=O)c1c(-c2ccccc2)oc2ccc(O)c(CCCN3CCC3)c12 [compound 200]	0.6 (≈ 0.219 µg/mL)	4.4	–
CCOC(=O)c1c(-c2ccccc2)oc2cc(NC(C)=O)cc(CN3CCCCC3)c12 [compound 30]	20 to 27 (≈ 8.41 to 11.4 µg/mL)	–	–
CNC(=O)c1c(-c2ccccc2)oc2cc(O)cc(CS(=O)(=O)NC)c12 [compound 83]	> 20	–	–
CCOC(=O)c1c(-c2ccccc2)oc2ccc(O)c(CCCCN3CCC3)c12 [compound 215]	–	–	MIC (Mtb strain mc^27000): <0.08 µM
CNC(=O)c1c(-c2ccncc2)oc2cc(O)cc(CN3CCCCC3)c12 [compound 84]	6.1 (≈ 2.23 µg/mL)	–	–
CCOC(=O)c1c(-c2ccccc2)oc2ccc(O)c(CCO)c12 [compound 106]	> 20	–	–
